Earlier results on two molecules are cited in publication PMC12030314, “Biomarker-Driven Pharmacokinetics and Efficacy of Polymyxin B in Critically Ill Patients with XDR-GN Pneumonia” (Pharmaceuticals, 2025).

Like-named read-outs stand apart in the source and are kept apart here.

The conditions of data set [1]: significant individual variation; cited from earlier work. The text has this:
Colistin (colistin methanesulfonate, CMS) and polymyxin B (PMB) are polymyxins that were approved for clinical use in the 1950s worldwide. Colistin is clinically administered as a prodrug, which requires conversion to the active form in vivo. […] The elimination of colistin is primarily dependent on renal function. Patients with renal impairment are prone to drug accumulation and increased nephrotoxicity risk. PMB is ... || Finally, we cannot rule out the possibility of the potential impacts of other combined drugs on PMB PK and the heterogeneity among the patients in our study. To date, little evidence supports the conclusion that the combined use of other drugs affects PMB PK. Studies have shown that urinary recovery from PMB is low (<5%). […] Further studies examining the nonrenal routes of PMB elimination are warranted, ...

For data set [2] the following is noted: ref Lamer et al. 103, cited from earlier work.

Regarding colistin methanesulfonate, the “conversion efficiency of the prodrug to the active form in vivo” value in data set [1] is listed as 20–25%. As to `CN[C@H](CC(C)C)C(=O)N[C@H]1C(=O)N[C@@H](CC(N)=O)C(=O)N[C@H]2C(=O)N[C@H]3C(=O)N[C@H](C(=O)N[C@H](C(=O)O)c4cc(O)cc(O)c4-c4cc3ccc4O)[C@H](O)c3ccc(c(Cl)c3)Oc3cc2cc(c3O[C@@H]2O[C@H](CO)[C@@H](O)[C@H](O)[C@H]2O[C@H]2C[C@](C)(N)[C@H](O)[C@H](C)O2)Oc2ccc(cc2Cl)[C@H]1O` [vancomycin], the ELF/plasma value in data set [2] (patients with lung inflammation (ELF albumin ≥ 3.4 mg/mL)) is 0.246 [0.192–0.426]; in data set [2] (patients without lung inflammation (ELF albumin <3.4 mg/mL)), 0.14 [0.023–0.285].
